Laboratory results from BindingDB's records for doi:10.1111/j.1747-0285.2007.00535.x (Abbott Laboratories, 2007).

Biological target: Heat shock protein HSP 90-alpha (Homo sapiens, UniProt P07900)
Test: FRET Assay
Details: pH 7.5; 25 °C

Row | SMILES | Ki [nM]
1 | Cc1cc(-c2ccc(Cl)cc2Cl)nc(N)n1 [HSP90 Inhibitor, 4] | 170
2 | Cc1cc(C=Cc2ccccc2/C=N/N2CCOC2=O)nc(N)n1 [HSP90 Inhibitor, 7] | 4000
3 | Nc1nc(Cl)cc(-c2ccc(Cl)cc2Cl)n1 [HSP90 Inhibitor, 5] | 60
